Source: US20240269212A1, “HEMP EXTRACT FOR TREATMENT OF PAIN, CANCER AND EPILEPSY IN ANIMALS” (Portland Technology Holdings LLC., priority 2021, published 2024)

Assays:
[1] = Serum cannabinoid concentrations after 1 and 2 weeks of twice daily dosing (relative steady state); assay type: in vivo, dog (beagle); settings: for concentration at 6 h: male, beagle, dog, 2 mg/kg, 2 mg/kg twice daily, six hours after the morning dose
Excerpt: Six intact male beagles all 2 years of age weighing between 18.6 and 22.2 kilograms body weight were housed at the Baker Institute for Animal Health and all procedures were approved by the Cornell University Institutional Animal Care and Use Committee (Protocol 2019-0001). All dogs underwent the fasted treatment trial for a two-week period and were then allowed 2 weeks of washout before beginning the fed stage of the trial which included ¼ of a 13 ounce can of a wet food (PURINA® Pro Plan Savory Chicken and Rice Formula, Nestle Purina, St. Louis, MO) at the time of dosing. Twenty-four hour pharmacokinetic analysis of serum cannabinoid levels was performed on day 1 after a single dose in the fed or fasted state. Then, twice daily dosing of treatment oil at both 7 am and 7 pm was performed on the following days for two weeks, and serum cannabinoids were measured. Prior to the study all dogs had blood drawn for a complete blood count and serum chemistry and again at the end of each phase of the 2 week study. Complete blood counts (white blood cells [WBC], hematocrit, hemoglobin, red blood cells [RBC], neutrophils, lymphocytes, platelets, monocytes, eosinophils, basophils) and serum biochemistry analyses (sodium, potassium, chloride, magnesium, calcium, phosphorus, albumin, total protein, globulin, urea nitrogen, creatinine, alkaline phosphatase [ALP], alanine aminotransferase [ALT], aspartate amino transferase [AST], cholesterol, total bilirubin, glucose and gamma glutamyl transferase [GGT]) were performed at the Cornell University Diagnostic Laboratory. For the fasted and fed portions of the 24 hour pharmacokinetic analysis study the dogs were administered 2 mg/kg body weight of an equal mix of 30 mg/mL CBG and 30 mg/mL CBGA from a hemp extract in a sesame oil base which was tested again at the end of the study showing virtually the same analytical profile. Two milliliters of blood was drawn via jugular venipuncture for all 6 dogs prior to the initial dose (0 hours) and then again at 0.5, 1, 2, 4, 8, 12 and 24 hours. Prior to enrollment all dogs involved in the study were deemed healthy based on physical examination. Behavioral observations were performed 2 hours after morning dosing for each phase of the trial. Behavioral observations were performed on day 1, day 3, day 7, and day 14. Physical and behavioral examinations were performed to assess for adverse events including diarrhea, vomiting, lethargy, somnolence, ataxia, or abnormal behavior within the colony. Due to the potential for CBG/CBGA to affect heart rate, dogs were assessed manually for resting heart rates for 30 seconds and extrapolated to relative beats per minute after initial dosing at time points 0, 1, 2, 4, 12, 24 and 48 hours and again at day 7 and day 14 after morning dosing for both the fed and fasted arms of the study. Serum was also obtained on day 7 and day 14 six hours after the morning dose for further serum cannabinoid measurement to establish relative steady state serum concentrations.
Analysis was performed using an exploratory (fit-for-purpose) method for fast measurement of thirteen cannabinoids and their metabolites at the Toxicology Research Laboratory, University of Illinois at Chicago. The reference standards for CBD and CBDA were obtained from Restek Corporation (Bellefonte, PA); all other reference and internal standards including CBG and CBGA were obtained from Cerilliant Corporation (Round Rock, TX). The concentrations of cannabinoids (CBD, CBDA, 7-COOH Cannabidiol (7-COOH-CBD), THC, THCA, cannabinol (CBN), cannabichromene (CBC), CBG, and CBGA) and their metabolites (7-OH-CBD, 7-COOH-CBD, COOH-THC, and COOH-THC-Glu) in dog sera were determined using high performance liquid chromatography with tandem mass spectrometry (LC-MS/MS) (Nexera X2 and LCMS 8050, Shimadzu Corp., Kyoto, Japan). […]

[2] = Physical and behavioral examinations for adverse events; assay type: in vivo; settings: healthy dogs, oral 2 mg/kg twice daily for 2 weeks
Excerpt: All dogs underwent the fasted treatment trial for a two-week period and were then allowed 2 weeks of washout before beginning the fed stage of the trial which included ¼ of a 13 ounce can of a wet food (PURINA® Pro Plan Savory Chicken and Rice Formula, Nestle Purina, St. Louis, MO) at the time of dosing. […] Prior to the study all dogs had blood drawn for a complete blood count and serum chemistry and again at the end of each phase of the 2 week study. Complete blood counts (white blood cells [WBC], hematocrit, hemoglobin, red blood cells [RBC], neutrophils, lymphocytes, platelets, monocytes, eosinophils, basophils) and serum biochemistry analyses (sodium, potassium, chloride, magnesium, calcium, phosphorus, albumin, total protein, globulin, urea nitrogen, creatinine, alkaline phosphatase [ALP], alanine aminotransferase [ALT], aspartate amino transferase [AST], cholesterol, total bilirubin, glucose and gamma glutamyl transferase [GGT]) were performed at the Cornell University Diagnostic Laboratory. […] Due to the potential for CBG/CBGA to affect heart rate, dogs were assessed manually for resting heart rates for 30 seconds and extrapolated to relative beats per minute after initial dosing at time points 0, 1, 2, 4, 12, 24 and 48 hours and again at day 7 and day 14 after morning dosing for both the fed and fasted arms of the study.

[3] = Manual resting heart rate monitoring; assay type: in vivo, dog (beagle); settings: initial dosing and two-week period of treatment
Excerpt: Six intact male beagles all 2 years of age weighing between 18.6 and 22.2 kilograms body weight were housed at the Baker Institute for Animal Health and all procedures were approved by the Cornell University Institutional Animal Care and Use Committee (Protocol 2019-0001). All dogs underwent the fasted treatment trial for a two-week period and were then allowed 2 weeks of washout before beginning the fed stage of the trial which included ¼ of a 13 ounce can of a wet food (PURINA® Pro Plan Savory Chicken and Rice Formula, Nestle Purina, St. Louis, MO) at the time of dosing. Twenty-four hour pharmacokinetic analysis of serum cannabinoid levels was performed on day 1 after a single dose in the fed or fasted state. Then, twice daily dosing of treatment oil at both 7 am and 7 pm was performed on the following days for two weeks, and serum cannabinoids were measured. Prior to the study all dogs had blood drawn for a complete blood count and serum chemistry and again at the end of each phase of the 2 week study. […] Due to the potential for CBG/CBGA to affect heart rate, dogs were assessed manually for resting heart rates for 30 seconds and extrapolated to relative beats per minute after initial dosing at time points 0, 1, 2, 4, 12, 24 and 48 hours and again at day 7 and day 14 after morning dosing for both the fed and fasted arms of the study. […]

| Compound | concentration at 6 h ([1]; serum, oral, week one, fasted) | concentration at 6 h ([1]; serum, oral, week one, fed) | concentration at 6 h ([1]; serum, oral, week two, fasted) | concentration at 6 h ([1]; serum, oral, week two, fed) | Short-term safety (serum biochemistry, blood count, physical exam and heart rate monitoring) [2] | concentration at 6 h ([1]; in vivo, week one, fasted) | concentration at 6 h ([1]; in vivo, week one, fed) | concentration at 6 h ([1]; in vivo, week two, fasted) | concentration at 6 h ([1]; in vivo, week two, fed) | absorption and retention, fold higher than what can be achieved with CBG ([1]; oral dosing over a 2-week period) | Bradycardia upon oral absorption [3] |
| --- | --- | --- | --- | --- | --- | --- | --- | --- | --- | --- | --- |
| CCCCCc1cc(O)c(C/C=C(\C)CCC=C(C)C)c(O)c1 [CBG, cannabigerol] | 5 ± 3.5 ng/mL | 12.7 ± 12.3 ng/mL | 6.1 ± 6 ng/mL | 9.6 ± 8.4 ng/mL | appear to be safe | – | – | – | – | – | – |
| CCCCCc1cc(O)c(C/C=C(\C)CCC=C(C)C)c(O)c1C(=O)O [CBGA, cannabigerolic acid] | – | – | – | – | appear to be safe | 437 ± 414 ng/mL | 564 ± 574 ng/mL | 260 ± 300 ng/mL | 223 ± 197 ng/mL | ~10 fold | does not induce bradycardia |
